Where “and” joins values, the source holds several entries; their conditions need not be identical. Identical values can stand only once.
What follows are compounds tested on mouse norovirus (assay: Mouse Norovirus (MNV) assay in RAW cells). Conditions: murine norovirus, Table 7.

Row | Compound | EC50 [µM]
1 | Cc1nc(N)c2c(C(N)=O)cn([C@@H]3O[C@H](COC(=O)[C@@H](N)C(C)C)[C@@H](O)[C@H]3O)c2n1 [Compound 2] | 1.9 to 4.15
2 | Cc1nc(N)c2c(C(N)=O)cn([C@@H]3O[C@H](COC(=O)[C@H](C)N)[C@@H](O)[C@H]3O)c2n1 [Compound 3] | 2
3 | CCCCCCCCCCCCCCCCOCCC(=O)OC[C@H]1O[C@@H](n2cc(C(N)=O)c3c(N)nc(C)nc32)[C@H](O)[C@@H]1O [Compound 4] | 3.5
4 | Cc1nc(N)c2c(C(N)=O)cn([C@@H]3O[C@H](COC(=O)[C@@H](N)Cc4ccccc4)[C@@H](O)[C@H]3O)c2n1 [Compound 5] | 2.2
5 | [2H][C@@]1(n2cc(C(N)=O)c3c(N)nc(C)nc32)O[C@H](CO)[C@@H](O)[C@H]1O [Compound 6] | 3.08
6 | Cc1nc(N)c2c(C(N)=O)cn([C@@H]3O[C@H](COP(=O)(O)O)[C@@H](O)[C@H]3O)c2n1 [Compound 71] | 3.15
7 | Cc1nc(N)c2c(C(N)=O)cn([C@@H]3O[C@H](COC(=O)[C@H](CC(C)C)NC(=O)OCC4c5ccccc5-c5ccccc54)[C@@H](O)[C@H]3O)c2n1 [Compound 76] | 16.4
8 | Cc1nc(N)c2c(C(N)=O)cn([C@@H]3O[C@H](COC(=O)[C@@H](N)CC(C)C)[C@@H](O)[C@H]3O)c2n1 [Compound 77] | 4.4

Same assay, conditions: murine norovirus, Table 8; N/A = assayed but no EC50 value could be measured

Row | Compound | EC50
9 | Cc1nc(O)c2c(C(N)=O)cn([C@@H]3O[C@H](CO)[C@@H](O)[C@H]3O)c2n1 [Compound 7] | 53.8 µM and 38.4 µM
10 | Cc1nc(N)c2c(C(N)=O)cn([C@@H]3O[C@H](CO)[C@@H](O)[C@H]3O)c2[n+]1[O-] [Compound 8] | 23.6 µM
11 | Cc1nc(N)c2c(C(N)=O)cn([C@@H]3O[C@H](CO)[C@@H](O)[C@@H]3O)c2n1 [Compound 9] | 50 µM
12 | Cc1nc(N)c2c(-c3nn[nH]n3)cn([C@@H]3O[C@H](CO)[C@@H](O)[C@H]3O)c2n1 [Compound 10] | 61.5 µM
13 | Cc1nc(N)c2c(C#N)cn([C@@H]3O[C@H](CO)[C@@H](O)[C@H]3O)c2n1 [Compound 11] | > 121 µM
14 | CCc1nc(N)c2c(C(N)=O)cn([C@@H]3O[C@H](CO)[C@@H](O)[C@H]3O)c2n1 [Compound 13] | > 200 µM
15 | Cc1nc(N)c2c(I)cn([C@@H]3O[C@H](CO)[C@@H](O)[C@H]3O)c2n1 [Compound 14] | > 100 µM
16 | NC(=O)c1cn([C@@H]2O[C@H](CO)[C@@H](O)[C@H]2O)c2nc(-c3ccccc3)nc(N)c12 [Compound 15] | > 100 µM
17 | NC(=S)c1cn([C@@H]2O[C@H](CO)[C@@H](O)[C@H]2O)c2nc(-c3ccccc3)nc(N)c12 [Compound 16] | > 100 µM
18 | N#Cc1cn([C@@H]2O[C@H](CO)[C@@H](O)[C@H]2O)c2nc(-c3ccccc3)nc(N)c12 [Compound 17] | > 100 µM
19 | Cc1nc(N)c2c(C(N)=O)cn([C@@H]3O[C@H](COCc4ccccc4)[C@@H](O)[C@H]3O)c2n1 [Compound 19] | > 100 µM
20 | Cc1nc(N)c2c(C(N)=O)cn([C@@H]3O[C@H](CO)[C@H]4OC(C)(C)O[C@H]43)c2n1 [Compound 20] | > 20 µM
21 | CCOP(=O)(COC[C@H]1O[C@@H](n2cc(C(N)=O)c3c(N)nc(C)nc32)[C@@H]2OC(C)(C)O[C@@H]21)OCC [Compound 21] | > 100 µM
22 | CCCCCCCCCCCCCCCOCCCOP(=O)(O)COC[C@H]1O[C@@H](n2cc(C(N)=O)c3c(N)nc(C)nc32)[C@@H]2OC(C)(C)O[C@@H]21 [Compound 22] | > 100 µM
23 | Cc1nc(N)c2c(C(N)=O)cn([C@@H]3O[C@H](COCP(=O)(O)O)[C@@H](O)[C@H]3O)c2n1 [Compound 23] | > 100 µM
24 | CCCCCCCCCCCCCCCCOCCCOP(=O)(O)COC[C@H]1O[C@@H](n2cc(C(N)=O)c3c(N)nc(C)nc32)[C@H](O)[C@@H]1O [Compound 24] | > 20 µM
25 | CCOP(=O)(COC[C@H]1O[C@@H](n2cc(C(N)=O)c3c(N)nc(C)nc32)[C@H](O)[C@@H]1O)OCC [Compound 25] | > 100 µM
26 | NC(=O)c1cn([C@@H]2O[C@H](CO)[C@@H](O)[C@H]2O)c2nc(C(F)(F)F)nc(N)c12 [Compound 26] | > 100 µM
27 | Cc1nc(Cl)c2c(C#N)cn([C@@H]3O[C@H](CO)[C@@H](O)[C@H]3O)c2n1 [Compound 29] | > 100 µM
28 | COc1nc(C)nc2c1c(C#N)cn2[C@@H]1O[C@H](CO)[C@@H](O)[C@H]1O [Compound 30] | > 100 µM
29 | Cc1nc(O)c2c(C#N)cn([C@@H]3O[C@H](CO)[C@@H](O)[C@H]3O)c2n1 [Compound 31] | > 100 µM

Row | Compound | EC50
30 | Cc1nc(N)c2c(C(N)=O)c[nH]c2n1 [Compound 32] | > 100 µM
31 | Cc1nc(N)c2c(C(=O)O)cn([C@@H]3O[C@H](COCc4ccccc4)[C@@H](O)[C@H]3O)c2n1 [Compound 33] | > 100 µM
32 | Cc1ncc2c(C(=O)O)cn([C@@H]3O[C@H](CO)[C@@H](O)[C@H]3O)c2n1 [Compound 34] | > 100 µM
33 | Cc1ncc2c(C(N)=O)cn([C@@H]3O[C@H](CO)[C@@H](O)[C@H]3O)c2n1 [Compound 35] | > 100 µM
34 | CNc1nc(C)nc2c1c(C(N)=O)cn2[C@@H]1O[C@H](CO)[C@@H](O)[C@H]1O [Compound 36] | > 100 µM
35 | Cc1nc(N(C)C)c2c(C(N)=O)cn([C@@H]3O[C@H](CO)[C@@H](O)[C@H]3O)c2n1 [Compound 37] | > 100 µM
36 | Cc1nc(N)c2c(C(N)=O)cn([C@@H]3O[C@H](CO)[C@@H](O)[C@H]3O)c2n1 [Compound 38] | > 100 µM
37 | CNC(=O)c1cn([C@@H]2O[C@H](CO)[C@@H](O)[C@H]2O)c2nc(C)nc(N)c12 [Compound 39] | > 100 µM
38 | Cc1nc(N)c2c(C(N)=O)cn([C@@H]3O[C@H](CO)[C@@H](O)C3(F)F)c2n1 [Compound 40] | > 100 µM
39 | Cc1nc(N)c2c(C(=O)N(C)C)cn([C@@H]3O[C@H](CO)[C@@H](O)[C@H]3O)c2n1 [Compound 41] | > 100 µM
40 | COc1nc(C)nc2c1c(I)cn2[C@@H]1O[C@H](CO)[C@@H](O)[C@H]1O [Compound 42] | > 100 µM
41 | CSc1nc(C)nc2c1c(I)cn2[C@@H]1O[C@H](CO)[C@@H](O)[C@H]1O [Compound 43] | > 100 µM
42 | Cc1nc(N)c2c(C(N)=O)c(Br)n([C@@H]3O[C@H](CO)[C@@H](O)[C@H]3O)c2n1 [Compound 44] | > 100 µM
43 | COC(=O)c1c[nH]c2nc(C)nc(Cl)c12 [Compound 45] | > 100 µM
44 | Cc1nc(N)c2cc[nH]c2n1 [Compound 46] | > 100 µM
45 | COc1nc(C)nc2c1c(CN)cn2[C@@H]1O[C@H](CO)[C@@H](O)[C@H]1O [Compound 47] | > 100 µM
46 | Cc1nc(N)c2ccn([C@@H]3O[C@H](CO)[C@@H](O)[C@H]3O)c2n1 [Compound 48] | > 100 µM
47 | Cc1nc(N)c2c(C(N)=O)cn(C[C@H](O)CO)c2n1 [Compound 50] | > 100 µM
48 | Cc1nc(N)c2c(C(N)=O)cn(C[C@H](C)O)c2n1 [Compound 51] | > 100 µM
49 | Cc1nc(N)c2c(C(N)=O)cn(C[C@@H](CO)OCP(=O)(O)O)c2n1 [Compound 52] | > 100 µM
50 | CCOP(=O)(CO[C@H](CO)Cn1cc(C(N)=O)c2c(N)nc(C)nc21)OCC [Compound 53] | > 100 µM

Row | Compound | EC50
51 | Cc1nc(N)c2ccn(C[C@H](C)O)c2n1 [Compound 54] | > 100 µM
52 | CCCCCCCCCCCCCCCCOCCCOP(=O)(O)CO[C@H](CO)Cn1cc(C(N)=O)c2c(N)nc(C)nc21 [Compound 56] | 75.3 µM
53 | Cc1nc(N)c2c(C(N)=O)cn([C@@H]3O[C@H](CO)[C@@H](O)[C@H]3N=[N+]=[N-])c2n1 [Compound 57] | > 100 µM
54 | CCOP(=O)(CO[C@H](C)Cn1cc(C(N)=O)c2c(N)nc(C)nc21)OCC [Compound 58] | > 100 µM
55 | Cc1nc(N)c2c(C(N)=O)cn(C[C@@H](C)OCP(=O)(O)O)c2n1 [Compound 59] | > 100 µM
56 | COc1nc(C)nc2c1c(C(N)=O)cn2[C@@H]1O[C@H](COC(=O)[C@@H](NC(=O)OC(C)(C)C)C(C)C)[C@@H](O)[C@@]1(C)O [Compound 61] | > 100 µM
57 | Cc1nc(N)c2c(C(N)=O)cn(C3(C)O[C@H](COC(=O)[C@@H](N)C(C)C)[C@@H](O)[C@H]3O)c2n1 (stereo partly drawn) [Compound 62] | > 100 µM
58 | Cc1nc(N)c2c(C(N)=O)cn([C@@H]3O[C@H](COC(=O)[C@@H](NC(=O)OCC4C5C=CC=CC5C5C=CC=CC54)C(C)C)[C@@H](O)[C@H]3O)c2n1 (stereo partly drawn) [Compound 63] | > 100 µM
59 | CCOP(=O)(COC(CO)Cn1cc(C(N)=O)c2c(N)nc(C)nc21)OCC (stereo not drawn) [Compound 64] | > 100 µM
60 | COc1ccc2cc([C@@H](C)C(=O)OC[C@H]3O[C@@H](n4cc(C(N)=O)c5c(N)nc(C)nc54)[C@@H]4OC(C)(C)O[C@@H]43)ccc2c1 [Compound 65] | > 100 µM
61 | CCOP(=O)(COC[C@@H]1C=C[C@H](n2cc(C(N)=O)c3c(N)nc(C)nc32)O1)OCC [Compound 67] | > 100 µM
62 | CCOP(=O)(CO[C@H]1O[C@@H](n2cc(C#N)c3c(N)nc(C)nc32)[C@H](O)[C@@H]1O)OCC [Compound 68] | > 100 µM
63 | Cc1nc(N)c2c(C(N)=O)cn([C@@H]3O[C@H](OCP(=O)(O)O)[C@@H](O)[C@H]3O)c2n1 [Compound 70] | > 100 µM
64 | CCOP(=O)(CO[C@H]1O[C@@H](n2cc(C(N)=O)c3c(N)nc(C)nc32)[C@H](O)[C@@H]1O)OCC [Compound 73] | > 100 µM
65 | CCOP(=O)(C[C@H]1O[C@@H](n2cc(C(N)=O)c3c(N)nc(C)nc32)[C@H](O)[C@@H]1O)OCC [Compound 74] | > 100 µM
66 | Cc1nc(N)c2c(C(N)=O)cn([C@@H]3O[C@H](CP(=O)(O)O)[C@@H](O)[C@H]3O)c2n1 [Compound 75] | > 100 µM
67 | Cc1nc(N)c2c(C(N)=O)cn([C@@H]3O[C@@H]4OCP(=O)(O)O[C@H]4[C@H]3O)c2n1 [Compound 78] | > 100 µM
68 | CCCCCCCCCCCCCCCCOCCCOP(=O)(O)OC[C@H]1O[C@@H](n2cc(C(N)=O)c3c(N)nc(C)nc32)[C@H](O)[C@@H]1O [Compound 79] | > 100 µM
69 | Cc1nc(N)c2ccn([C@@H]3O[C@H](COCc4ccccc4)[C@@H](O)[C@H]3O)c2n1 [Compound 82] | > 100 µM
70 | NC(=O)c1cn([C@@H]2O[C@H](CO)[C@@H](O)[C@H]2O)c2nc(N)nc(N)c12 [Compound 83] | > 100 µM
71 | Cc1nc(N)c2c(S(=O)(=O)O)cn([C@@H]3O[C@H](CO)[C@@H](O)[C@H]3O)c2n1 [Compound 84] | > 100 µM

Same assay, conditions: murine norovirus, Table 8; N/A = assayed but no EC50 value could be measured; listed as compound 7

Row | Compound | EC50 [µM]
72 | Cc1nc(O)c2c(C(N)=O)cn([C@@H]3O[C@H](CO)[C@@H](O)[C@H]3O)c2n1 [Compound 7] | > 38

From patent publication US9708359B2, “Pyrrolopyrimidine nucleosides and analogs thereof” (Chimerix, Inc., priority 2015, dated 2017)
